Article PMC10674894 (Viruses, 2023)
Where “and” joins values, the source holds several entries; their conditions need not be identical. Equal values may be shown once. Read-outs that look alike come from different tables or passages of the source.

Legend:
Vero cells = assay: Cytotoxicity MTT assay in Vero cells (MNTD, CC50); assay type: cell-based, African green monkey
CHIKV DRDE-07 = assay: In vitro screening against CHIKV (CPE inhibition and MTT cell viability); assay type: cell-based, chikungunya virus; details: for % Cell viability / CPE: Table S1, CHIKV-infected Vero cells; for % Cell viability / Cell Viability: 72 hpi; for % Cell viability: MTT assay; for CPE: arbitrary score of cytopathic effect at >48 hpi; for Cell Viability: CHIKV-infected Vero cells treated at MNTD, MTT, cell control + DMSO = 100%
CHIKV [1] = assay: Mode of inhibition (time of addition), MTT cell viability; assay type: cell-based, chikungunya virus; details: for viability at 300 µM: Chikungunya virus
RRV T48 strain [2] = assay: Immunofluorescence and MTT cell viability assays, RRV; assay type: cell-based, Ross River virus; details: 300 µM, 36 hpi
CHIKV-E2 protein = assay: Western blot of CHIKV E2 protein; assay type: cell-based, chikungunya virus; details: 18 hpi, compared to virus control
CHIKV [3] = assay: Plaque assay, CHIKV; assay type: cell-based, chikungunya virus; details: 300 μM, MOI 0.1
[4] = Cytotoxicity MTT assay in Vero cells (MNTD, CC50); assay type: cell-based, African green monkey; details: African green monkey
RRV T48 strain [5] = assay: Plaque assay, RRV; assay type: cell-based, Ross River virus; details: 300 µM; for RRV titer: MOI 0.1; for percent reduction in virus titer: with respect to virus control
CHIKV [6] = assay: Cytopathic effect inhibition and cell viability dose-response assay; assay type: cell-based, chikungunya virus
CHIKV [7] = assay: Immunofluorescence assay, CHIKV E2 mAb; assay type: cell-based, chikungunya virus
[8] = maximum nontoxic dose in Vero cells, MTT

Compound | MNTD (Vero cells; Table S1, Vero cells) [µM] | % Cell viability (CHIKV DRDE-07) [%] | CPE (CHIKV DRDE-07) | MNTD (Vero cells; [8]) [µM] | Cell Viability (CHIKV DRDE-07) [%] | also measured
N#Cc1cc(F)ccc1N1CCCCC1 [DCR145, 5-Fluoro-2-piperidin-1-yl-benzonitrile] | 125 | 0 | ++++ (>60% (++++)) | – | – | –
N#Cc1ccccc1N1CCOCC1 [DCR146, 2-Morpholin-4-yl-benzonitrile] | 250 | -3.98 | ++++ (>60% (++++)) | – | – | –
N#Cc1ccccc1NCc1ccccc1 [DCR147, 2-Benzylamino-benzonitrile] | 125 | 17.97 | ++++ (>60% (++++)) | – | – | –
CC1CN(c2ccc(C#N)c(Cl)c2)CC(C)N1 (stereo not shown) [DCR148, 2-Chloro-4-(3,5-dimethyl-piperazin-1-yl)-benzonitrile] | 125 | 14.42 | ++++ (>60% (++++)) | – | – | –
CC1CN(c2ccc(C(=N)NO)c(Cl)c2)CC(C)N1 (stereo not shown) [DCR149, 2-Chloro-4-(3,5-dimethyl-piperazin-1-yl)-N-hydroxy-benzamidine] | 125 | -21.8 | ++++ (>60% (++++)) | – | – | –
N#Cc1ccc(N2CCN(CCO)CC2)cc1N1CCN(CCO)CC1 [DCR150, 2,4-Bis-[4-(2-hydroxy-ethyl)-piperazin-1-yl]-benzonitrile] | 62.5 | 18.09 | ++++ (>60% (++++)) | – | – | –
Brc1cc2c(c3ncccc13)Oc1ncccc1O2 [DCR 1, 5-bromo-7,12-dioxa-1,11-diaza-benzo[a]anthracene] | 50 | – | ++ (50-30% (++)) | 50 | 72 | –
Brc1cc2c(c3ncccc13)Oc1cc(Br)c3cccnc3c1O2 [DCR 2, 5,12-dibromo-[1,4]dioxino[2,3-h:5,6-h’]diquinoline] | 50 | – | ++ (50-30% (++)) | 50 | 63 | –
Clc1ncccc1Oc1cc2c(c3ncccc13)Oc1ncccc1O2 [DCR 3, 7-[(2-chloropridin-3-yl)oxy]-5,12-dioxa-1,11-diazatetraphene] | 50 | – | ++ (50-30% (++)) | 50 | 69.9 | –
Nc1nc(N)c2ccccc2n1 [DCR 134, Quinazoline-2,4-diamine] | 150 | – | + (<30%) | 150 | 75.9 | –
Nc1nc(N)c2c(F)cccc2n1 [DCR 135, 5-fluoro-quinazoline-2,4-diamine] | 250 | – | ++ (50-30% (++)) | 250 | 61 | –
Nc1nc(N)c2ccc(F)cc2n1 [DCR 136, 7-fluoro-quinazoline-2,4-diamine] | 250 | – | ++ (50-30% (++)) | 250 | 54 | –
Nc1nc(N)c2cc(F)ccc2n1 [DCR 137, 6-fluoro-quinazoline-2,4-diamine] | 300 | – | + (<30%) | 300 | – | viability at 300 µM (CHIKV [1]; 2 h, read-out: cell viability, post-treatment): > 95%; viability at 300 µM (CHIKV [1]; read-out: cell viability, pre-treatment): 15%; viability at 300 µM (CHIKV [1]; read-out: cell viability, simultaneous treatment): 29%; effect of pre-treatment or simultaneous treatment on viral infection (CHIKV [1]; pre-treatment 24 h or simultaneous 1 h, CHIKV MOI 1): no inhibitory effects; green fluorescence (RRV immunofluorescence) (RRV T48 strain [2]): barely detectable; CHIKV-E2 protein expression (CHIKV-E2 protein): significant decrease; CHIKV titer (CHIKV [3]; 24 hpi, virus control 2.8 × 10^6): 1.8 × 10^2 PFU/mL; CHIKV titer (CHIKV [3]; 48 hpi, virus control 9.1 × 10^8): 1.9 × 10^5 PFU/mL; MNTD value (Vero cells; Vero cells): > 300 μM and ~ 312 μM; cytotoxicity (cell morphology) (Vero cells; Vero cells, 312.5 µM, 48 hpi, microscopy): No significant cytotoxicity; CC50 at 72 h ([4]; Vero cells, MTT): > 1100 µM; viability at 72 h ([4]; uninfected Vero cells at MNTD, read-out: cell viability at MNTD): ~90%; RRV titer (RRV T48 strain [5]; 24 hpi, untreated 3.0 × 10^6): 1.1 × 10^2 PFU/mL; percent reduction in virus titer (RRV T48 strain [5]; 24 hpi): 99.99%; RRV titer (RRV T48 strain [5]; 48 hpi, untreated 1.2 × 10^8): 1.7 × 10^5 PFU/mL; percent reduction in virus titer (RRV T48 strain [5]; 48 hpi): 99.85%; cytopathic effect (microscopy) (CHIKV [6]; 150 and 300 µM, CHIKV-infected Vero cells): delayed and dose-dependent CPE; EC50 (CHIKV [6]; Chikungunya virus, Vero, CHIKV replication in Vero cells, post-treatment, MTT at 48 hpi): ~37 µM; viral fluorescence (immunofluorescence) (CHIKV [7]; 300 µM, CHIKV MOI 0.1, 36 hpi): complete abrogation of viral fluorescence; protection compared to ribavirin (CHIKV [7]; CHIKV, immunofluorescence, ribavirin positive control): higher protection
Nc1nc(N)c2cc(F)c(F)cc2n1 [DCR 138, 6,7-difluoro-quinazoline-2,4-diamine] | 250 | – | ++ (50-30% (++)) | 250 | 51 | –
COc1cccc2nc(N)nc(N)c12 [DCR 139, 5-methoxy-quinazoline-2,4-diamine] | 250 | – | ++ (50-30% (++)) | 250 | 57 | –
(E)-N'-(5-bromo-2-methoxybenzylidene)isonicotinohydrazide [DCR39] | 31.25 | 3.81 | ++++ (>60% (++++)) | – | – | –
(E)-N'-(5-bromo-2-methoxybenzylidene)nicotinohydrazide [DCR24] | 15.6 | 25.23 | ++++ (>60% (++++)) | – | – | –
